Measured values reported in patent publication US20170096636A1, “METHODS AND COMPOUNDS FOR PHOTOTHERAPY WITH CHALCOGENORHODAMINE PHOTOSENSITIZERS” (Wake Forest University Health Sciences, priority 2014, published 2017).
“Also recorded” adds a separate entry of the source.

Tests used:
[1] = Quantum yield for generation of singlet oxygen, time-resolved 1O2 phosphorescence; assay type: physicochemical; details: air-saturated MeOH, TMR-Se as reference
[2] = Fluorescence quantum yield in MeOH; assay type: physicochemical; details: quantum yield for fluorescence in MeOH
[3] = system: immunomagnetically-selected CD3+ cells; assay: Phototoxicity: photodepletion (PD) of CD3+ cells, real-time OCR; assay type: cell-based; details: 5.0×10^−8 M 20 minutes, 30 minutes photosensitizer-free, 5 J/cm^2 light
Description: (§1) Selective phototoxicity of Chalcogenorhodamine Photosensitizers. Based on the rapid extrusion kinetics and low potential for toxicity in resting cells, we selected four amide-containing half-julolidine analogues for further analysis (2-S—Cl, 2-Se—Cl, 4-S—Cl, and 4-Se—Cl). These photosensitizers are associated with high singlet oxygen quantum yields (Table I). As a result, very low concentrations of these agents are required for phototherapy. For all PD experiments, immunomagnetically-selected CD3^+ cells were suspended in a photosensitizer-rich media of 5.0×10^−8 M for 20 minutes followed by 30 minutes in a photosensitizer-free media. Cells were then exposed to 5 J/cm^2 of light followed by real-time measurement of OCR and ECAR. […] We next evaluated the effects of PD on cell survival. For these experiments, FACS analysis was performed 18 hours after PD. Cell survival was identified by failure to bind Annexin 5 and 7AAD, and percent survival was calculated as the difference in the absolute number of cells between PD and control (non-PD samples) samples.

[4] = n-octanol / PBS pH 7.4, shake flask
[5] = system: immunomagnetically-selected CD3+ cells; assay: Phototoxicity: cell survival by FACS (Annexin 5/7AAD) 18 hours after PD; assay type: cell-based; details: 5.0×10^−8 M, 5 J/cm^2 light, FACS 18 hours after PD
Description: as §1

[6] = system: activated T cells (CD25+); assay: PD of activated T cells after SEB stimulation: bioenergetics and survival; assay type: cell-based; details: 5×10^−8 M, 5 J/cm^2
Experimental: To evaluate the differential effects of PD on bioenergetics of activated and resting T cells, immunomagnetically-selected CD25^+ and CD25^− T cells were isolated (>95% purity) after SEB stimulation. PD was then performed, and bioenergetics were measured within 1 hour. The percent of basal OCR devoted to ATP production was determined by comparing basal OCR to baseline OCR (after oligomycin injection). […] Upon exposure to light, the higher concentration of 2-Se—Cl selectively disrupted OXPHOS in activated T cells. To determine whether the selective impedance of basal ATP production affected cell survival, we performed FACS analysis 18 hours after PD (FIG. 5C).

HUT-78 cells = assay: Cellular uptake and extrusion of photosensitizer (flow cytometry MFI); assay type: cell-based; details: ±SE; for Uptake MFI: 2.5 × 10^−7 M photosensitizer, 20 minutes exposure; for % Extrusion: percent change in MFI after 18 hour extrusion period, 2.5 × 10^−7 M
Experimental: Cellular Uptake and Extrusion of Chalcogenorhodamine Photosensitizers. […] Cellular uptake of the chalcogenorhodamine photosensitizers was measured after a 20 minute exposure to 2.5×10^−7 M photosensitizer in malignant T cells (HUT-78 cells, Table 2). Transmembrane movement of the photosensitizers in the secretory direction (basolateral to apical) was measured after an 18-h extrusion period. As described above, the Se-containing molecules fluoresced at a lower intensity relative to the S-containing molecules. […] Overall, the PF6^− salts were more slowly extruded from cells relative to the chloride salts of the amide, with a greater difference in the extrusion kinetics noted between the thiorhodamine PF6 salts compared to the selenorhodamine chloride salts.

resting T cells = assay: Dark toxicity: bioenergetics (O2 consumption rate) of resting T cells; details: 5.0×10^−7 M
PBMCs = assay type: cell-based; details: SEB 50 ng/mL 72 hours, CFSE
physchem = details: n-octanol/phosphate buffered saline, pH 7.4
MDCK-MDR1 cells = details: cited from earlier work
P-gp = P-gp (Homo sapiens, UniProt P08183); details: cited from earlier work
P-gp, sequence (P08183 whole entry): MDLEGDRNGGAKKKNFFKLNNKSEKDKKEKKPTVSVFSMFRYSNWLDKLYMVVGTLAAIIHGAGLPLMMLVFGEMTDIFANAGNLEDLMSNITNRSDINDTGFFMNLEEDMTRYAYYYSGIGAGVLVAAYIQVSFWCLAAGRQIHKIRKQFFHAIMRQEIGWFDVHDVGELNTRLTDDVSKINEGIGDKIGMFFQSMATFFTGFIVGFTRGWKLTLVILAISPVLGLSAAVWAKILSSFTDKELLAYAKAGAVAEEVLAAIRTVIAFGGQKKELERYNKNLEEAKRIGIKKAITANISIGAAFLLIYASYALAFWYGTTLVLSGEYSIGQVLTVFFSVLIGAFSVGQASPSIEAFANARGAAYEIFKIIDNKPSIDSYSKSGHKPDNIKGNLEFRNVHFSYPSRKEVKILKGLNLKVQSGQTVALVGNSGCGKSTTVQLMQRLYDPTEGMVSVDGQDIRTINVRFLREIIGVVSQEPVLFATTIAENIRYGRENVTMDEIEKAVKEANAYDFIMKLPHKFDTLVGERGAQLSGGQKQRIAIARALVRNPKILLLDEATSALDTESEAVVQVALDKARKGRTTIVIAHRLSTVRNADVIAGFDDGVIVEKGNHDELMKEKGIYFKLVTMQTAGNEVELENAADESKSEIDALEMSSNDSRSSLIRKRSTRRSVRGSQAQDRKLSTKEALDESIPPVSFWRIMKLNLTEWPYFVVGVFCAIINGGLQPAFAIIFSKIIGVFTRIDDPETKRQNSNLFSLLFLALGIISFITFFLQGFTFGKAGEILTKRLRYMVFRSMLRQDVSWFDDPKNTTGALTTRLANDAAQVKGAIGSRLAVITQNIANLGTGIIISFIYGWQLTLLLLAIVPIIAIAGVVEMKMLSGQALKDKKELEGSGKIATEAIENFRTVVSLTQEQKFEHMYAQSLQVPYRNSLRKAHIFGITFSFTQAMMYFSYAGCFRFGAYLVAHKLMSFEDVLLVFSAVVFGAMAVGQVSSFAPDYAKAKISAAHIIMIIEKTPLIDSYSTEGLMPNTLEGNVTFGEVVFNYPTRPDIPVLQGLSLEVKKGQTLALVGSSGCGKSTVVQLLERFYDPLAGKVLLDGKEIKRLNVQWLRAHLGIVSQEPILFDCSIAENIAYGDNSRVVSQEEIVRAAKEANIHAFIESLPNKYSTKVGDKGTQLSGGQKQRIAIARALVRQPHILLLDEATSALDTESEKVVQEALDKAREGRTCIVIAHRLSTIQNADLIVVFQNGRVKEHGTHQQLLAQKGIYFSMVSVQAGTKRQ

cytochrome c oxidase = details: whole cells, irradiation; cited from earlier work
[7] = reference value; cited from earlier work

CN1CCC(C)(C)c2cc3c(-c4ccc(C(=O)N5CCCCC5)s4)c4ccc(=[N+](C)C)cc-4[se]c3cc21.[Cl-] [2-Se—Cl, N-methyl-N-(1,4,4-trimethyl-6-(5-(piperidine-1-carbonyl)thiophen-2-yl)-3,4-dihydro-1H-selenochromeno[3,2-g]quinolin-9(2H)-ylidene)methanaminium Chloride]
Φ(^1O2), MeOH [1]: 0.48±0.03 | ΦF, MeOH [2]: 0.009 ± 0.001 | effect of PD on basal OCR [3]: did not significantly impede the basal OCR | log P [4]: 2.23 ± 0.04 | cell death after PD [5]: minimal cell death | aerobic glycolysis after PD (resting T cells (CD25−)): not affecting aerobic glycolysis of either population | cell death in resting T cell population (resting T cells (CD25−)): minimal to no cell death | activated T cells eliminated from culture ([6]; FACS 18 hours after PD): Greater than 90% | aerobic glycolysis after PD ([6]; activated T cells): not affecting aerobic glycolysis of either population | OXPHOS associated ATP production after PD ([6]; activated T cells, within 1 hour): significantly impeded | Uptake MFI (HUT-78 cells): 6536 | % Extrusion (HUT-78 cells): 92.17 (±1.09) % | dark toxicity (resting T cells): not associated with any significant dark toxicity; also recorded: minimal toxicity | response to TSST-1 after PD (PBMCs; challenge with TSST-1, 6 days): a robust response was observed | proliferation in response to SEB after PD (PBMCs; rechallenge with SEB, 6 days): no proliferation occurred

CCN(CC)C(=O)c1ccc(-c2c3ccc(N(C)C)cc3[se+]c3c4c5c(cc23)CCCN5CCC4)s1.[Cl-] [8-Se—Cl, 12-(Dimethylamino)-2,3,6,7-tetrahydro-9-(5-(diethylcarbamoyl)-thiophen-2-yl)-1H,5H-selenoxantheno[2,3,4-ij]quinolizin-14-ium Chloride]
melting point: 150 to 152 °C | logP (physchem): 2.87 ± 0.01 | Uptake MFI (HUT-78 cells): 19365 | % Extrusion (HUT-78 cells): 83.05 (±1.78) %

CCN(CC)C(=O)c1ccc(-c2c3ccc(N(C)C)cc3[s+]c3c4c5c(cc23)CCCN5CCC4)s1.F[P-](F)(F)(F)(F)F [8-S—PF6]
log P [4]: 1.4 | PBA (MDCK-MDR1 cells): 21 ×10⁻⁶ cm/s | effect on ATPase activity in P-gp (P-gp): stimulate ATPase activity | Uptake MFI (HUT-78 cells): 128000 | % Extrusion (HUT-78 cells): 79.40 (±1.56) %

CN(C)c1ccc2c(-c3ccccc3)c3ccc(=[N+](C)C)cc-3[se]c2c1.[Cl-] [TMR-Se]
cytochrome c oxidase activity in irradiated treated cells (cytochrome c oxidase): light fluence-dependent inhibition of cytochrome c oxidase activity | Φ(^1O2) of reference [7]: 0.87
